In ChEMBL document CHEMBL3994643, “Synthesis and glucose-stimulate insulin secretion (GSIS) evaluation of vindoline derivatives” (Bioorg Med Chem Lett, 2017):
pEC50: −log10 of the molar value.

System: MIN6
Assay: Induction of glucose-stimulated insulin secretion in mouse MIN6 cells after 2 hrs by ELISA
Type: functional, cell-based
Details: MIN6, 2 h

SMILES	pEC50
CC[C@]12C=CCN3CC[C@@]4(c5ccc(OC)cc5N(C)[C@H]4[C@@](O)(C(=O)OC)[C@@H]1OC(C)=O)[C@@H]32	4.30
CCC(=O)NC[C@@]1(O)[C@H](OC(C)=O)[C@]2(CC)C=CCN3CC[C@@]4(c5ccc(OC)cc5N(C)[C@@H]14)[C@@H]32	4.90
CC[C@]12C=CCN3CC[C@@]4(c5ccc(OC)cc5N(C)[C@H]4[C@@](O)(CNC(=O)C(C)(C)C)[C@@H]1OC(C)=O)[C@@H]32	4.68
CC[C@]12CCCN3CC[C@@]4(c5ccc(OC)cc5N(C)[C@H]4[C@@](O)(C(=O)OC)[C@@H]1OC(=O)C(C)C)[C@@H]32	4.85
CC[C@]12C=CCN3CC[C@@]4(c5ccc(OC)cc5N(C)[C@H]4[C@@](O)(C(=O)OC)[C@@H]1O)[C@@H]32	< 4.00
CC[C@]12C=CCN3CC[C@@]4(c5ccc(OC)cc5N(C)[C@H]4[C@@](O)(C(=O)OC)[C@@H]1OC(=O)c1ccccc1)[C@@H]32	4.21
CC[C@]12C=CCN3CC[C@@]4(c5ccc(OC)cc5N(C)[C@H]4[C@@](O)(COC(=O)C(C)C)[C@@H]1OC(C)=O)[C@@H]32	< 4.00
CC[C@]12C=CCN3CC[C@@]4(c5ccc(OC)cc5N(C)[C@H]4[C@@](O)(C(=O)OC)[C@@H]1OC(=O)C1CCCCC1)[C@@H]32	4.09
CCC(=O)NC[C@@]1(O)[C@H](OC(=O)C(C)C)[C@]2(CC)C=CCN3CC[C@@]4(c5ccc(OC)cc5N(C)[C@@H]14)[C@@H]32	4.73
CC[C@]12C=CCN3CC[C@@]4(c5ccc(OC)cc5N(C)[C@H]4[C@@](O)(CNC(C)=O)[C@@H]1OC(C)=O)[C@@H]32	4.71
CCC(=O)O[C@@H]1[C@]2(CC)CCCN3CC[C@@]4(c5ccc(OC)cc5N(C)[C@H]4[C@@]1(O)C(=O)OC)[C@@H]32	4.41
CCC(=O)OC[C@@]1(O)[C@H](OC(C)=O)[C@]2(CC)C=CCN3CC[C@@]4(c5ccc(OC)cc5N(C)[C@@H]14)[C@@H]32	4.29
CCOC[C@@]1(O)[C@H](OC(=O)C(C)C)[C@]2(CC)C=CCN3CC[C@@]4(c5ccc(OC)cc5N(C)[C@@H]14)[C@@H]32	4.85

Other lines, results leading:

pEC50	SMILES
< 4.00	CCCCO[C@@H]1[C@]2(CC)C=CCN3CC[C@@]4(c5ccc(OC)cc5N(C)[C@H]4[C@@]1(O)C(=O)OC)[C@@H]32
4.38	CCCOC[C@@]1(O)[C@H](OC(C)=O)[C@]2(CC)C=CCN3CC[C@@]4(c5ccc(OC)cc5N(C)[C@@H]14)[C@@H]32
4.39	CC[C@]12C=CCN3CC[C@@]4(c5ccc(OC)cc5N(C)[C@H]4[C@@](O)(COC)[C@@H]1OC(C)=O)[C@@H]32
4.49	CCC(=O)O[C@@H]1[C@]2(CC)C=CCN3CC[C@@]4(c5ccc(OC)cc5N(C)[C@H]4[C@@]1(O)C(=O)OC)[C@@H]32
4.21	CCO[C@@H]1[C@]2(CC)C=CCN3CC[C@@]4(c5ccc(OC)cc5N(C)[C@H]4[C@@]1(O)C(=O)OC)[C@@H]32
< 4.00	CCCCOC[C@@]1(O)[C@H](OC(C)=O)[C@]2(CC)C=CCN3CC[C@@]4(c5ccc(OC)cc5N(C)[C@@H]14)[C@@H]32
4.19	CCCO[C@@H]1[C@]2(CC)C=CCN3CC[C@@]4(c5ccc(OC)cc5N(C)[C@H]4[C@@]1(O)C(=O)OC)[C@@H]32
4.98	CC[C@]12C=CCN3CC[C@@]4(c5ccc(OC)cc5N(C)[C@H]4[C@@](O)(C(=O)OC)[C@@H]1OC(=O)C(C)C)[C@@H]32
4.96	CCOC[C@@]1(O)[C@H](OC(C)=O)[C@]2(CC)C=CCN3CC[C@@]4(c5ccc(OC)cc5N(C)[C@@H]14)[C@@H]32
< 4.00	CC[C@]12C=CCN3CC[C@@]4(c5ccc(OC)cc5N(C)[C@H]4[C@@](O)(C(=O)OC)[C@@H]1OC)[C@@H]32
